The results in this text go back to patent US20110224197A1, “PYRIMIDINES AND PYRIDINES USEFUL AS INHIBITORS OF PROTEIN KINASES” (Vertex Pharmaceuticals Incorporated, priority 2008, published 2011).

Assay [1] concerns CRMP2. In words: CRMP2 Phosphorylation Assay. The following applies: E16 hippocampal neurons treated for seven days. It is filed as cell-based, rat. The protocol: GSK-3 phosphorylation regulates CRMP2 which is involved in the control of axon outgrowth and branching (Yoshimura et al., 2005 Cell, Kim et al. 2006 Neuron). Phosphorylation of CRMP2 by GSK-3 reduces CRMP2 binding to microtubules and thereby reduces axon elongation and branching. Conversely, inhibition of GSK-3, especially at levels that selectively affect TYR residue autophosphorylation, enhances these phenotypes. Compounds are tested in E16 rat hippocampal or cortical neurons to determine the ability to increase the level of axonal branching.
1 mg/ml stock of PDL is diluted into 100 μg/mL in DI water. The glass coverslips are coated for at least 1 hour at 37° C. prior to doing the dissection. PDL is aspirated and the plates are rinsed with PBS and air-dried in hood.
Cortical or hippocampal lobes are combined with 9 mL of Base media (Neurobasal+Pen/Strep) and put on ice. 1 mL of 10× trypsin solution is added and the Mixture is swirled gently. The tissue is then digested via incubation in a 37° C. waterbath for 20 minutes. After 20 minutes, 10 μL/mL DNase (100 μL DNase) is added and the mixture is incubated for another 5 minutes.
The cells are spun at 1000 rpm for 1 minute. The enzyme solution is then removed without removing any of the brain fragments sitting on the bottom. […] The cells are counted in a hemacytometer and seeded at 50,000 cells/well in a 12 well plate. […]

In assay [2] the test system is human umbilical vein endothelial cells (HUVEC). Nature of the assay: In vitro model of angiogenesis using HUVEC and skin fibroblasts. It is filed as cell-based. Conditions: HUVEC cultures. An excerpt: Compounds are screened for the ability to enhance angiogenesis in human umbilical vein endothelial cells (HUVEC). This method, adapted from Nakatsu et al., Microvas. Res. 2003, describes a protocol that recapitulates the major events essential for new vessel growth: budding, cell migration, cell proliferation, lumen formation, branching, and anastomosis.
HUVEC are used between P3 and P4. HUVEC are mixed with dextran coated cytodex 3 micro-carriers (Amersham Pharmacia) at a concentration of 400 HUVEC per bead in 1 ml of EGM-2 (2% FBS) medium (Clonetics). Beads with cells are then shaken gently every 20 minutes for 4 hours at 37° C. and 5% CO2. After incubating, beads with cells are transferred to a T-25 tissue culture flask and left for 12-16 hours in 5 ml of EGM-2 at 37° C. and 5% CO2.
The following day, beads with cells are washed three times with EGM-2 and re-suspended at a concentration of 200 cell-coated beads/ml in 2.5 mg/ml of fibrinogen (Sigma) with 0.15 U/ml of aprotinin (Sigma) at a pH of 7.4.
500 uL of fibrinogen/bead solution is then added to 0.625 U of thrombin (Sigma) in one well of a 24 well tissue culture plate. Fibrinogen/Bead solution is allowed to clot for 5 minutes at room temperature and then at 37° C. and 5% CO2 for 20 minutes. 1 mL of EGM-2 with 0.15 U/mL of aprotinin is then added to each well and equilibrated with the fibrin clot for 30 minutes at 37° C. and 5% CO2.
Next, media is removed from the well and replaced with 1 mL of fresh medium. […]
Angiogenesis is scored by quantification of images captured on an inverted microscope at 10× and 20× magnification for vessel length, number of vessels and branches per bead using NIH Image J software. […] YFP positive HUVEC are then cultured as described above and quantification of vessel formation is determined by calculating the area under the threshold fluorescence using NIH Image J software. In both cases, enhanced angiogenesis is determined by comparing compound treated cultures with a DMSO control culture at the same time point.

For assay [3], the system named is GSK-3α/β pTYR. In words: pTYR biomarker analysis in brain, Post Stroke Model II. The following applies: all doses, termination of study. It is filed as in vivo, rat. As for the experimental part:
To track the activity of Compound I-37 in the CNS of rats subjected to MCAO, brains were removed and protein lysate was obtained (as described herein) from both vehicle treated and compound treated animals at the termination of the study. Lysates were analyzed by Western blot and probed for GSK-3α/β pTYR levels.
Protein lysate is obtained from the brains of all vehicle and compound-treated animals and is processed for biomarker analysis of GSK3α/β pTYR and β-catenin by Western blot assay to ensure compound activity on the target.

Where [4] appears, read: concentrations shown to induce β-catenin.

Structures are written as SMILES.

As for `Cc1nc(-c2ccccc2Cl)nc(Nc2n[nH]c3ncc(F)cc23)c1C` [Compound I-37, N-(2-(2-chlorophenyl)-5,6-dimethylpyrhnidin-4-yl)-5-fluoro-1H-pyrazolo[3,4-b]pyridin-3-amine], the “Inhibition of GSK-3 phosphorylation of substrate CRMP-2” value in assay [1] was “correlated with inhibition of GSK-3 pTYR”. Further, in assay [2] (10 nM, 7 days), the “vessel and network formation” value was “increase vessel and network formation”. For the same compound, in assay [2] (setting [4]), the cell proliferation result is on record as “increased cell proliferation was observed” and the vessel formation result is on record as “vessel formation was inhibited”. The “pTYR signal compared to vehicle treated rats” value in assay [3] is given as “significant reduction”.
